Data from US10745361B2, “Piperazine derivatives having multimodal activity against pain” (ESTEVE PHARMACEUTICALS, S.A., priority 2013, dated 2020).

tested on: human σ1 receptor and human μ-opioid receptor; experiment: Human σ1 receptor radioligand assay and human μ-opioid receptor radioligand assay (μ and σ1 dual binding); set-up: key to μ and σ1 dual binding: +: Both Ki-μ and Ki-σ1>=500 nM; ++: One K, <500 nM while the other K, is >=500 nM; +++: Both Ki-μ and Ki-σ1<500 nM; ++++: Both Ki-μ and Ki-σ1<100 nM; conditions: one class for both Ki: σ1 ([3H](+)-pentazocine, transfected HEK-293 membranes) and μ-opioid ([3H]-DAMGO, transfected CHO-K1 membranes)
Method: Human σ1 Receptor Radioligand Assay
To investigate binding properties of σ1 receptor ligands to human σ1 receptor, transfected HEK-293 membranes and [^3H](+)-pentazocine (Perkin Elmer, NET-1056), as the radioligand, were used. The assay was carried out with 7 μg of membrane suspension, 5 nM of [^3H](+)-pentazocine in either absence or presence of either buffer or 10 μM Haloperidol for total and non-specific binding, respectively. Binding buffer contained Tris-HCl 50 mM at pH 8. Plates were incubated at 37° C. for 120 minutes. After the incubation period, the reaction mix was then transferred to MultiScreen HTS, FC plates (Millipore), filtered and plates were washed 3 times with ice-cold 10 mM Tris-HCL (pH7.4). Filters were dried and counted at approximately 40% efficiency in a MicroBeta scintillation counter (Perkin-Elmer) using EcoScint liquid scintillation cocktail
Human μ-Opioid Receptor Radioligand Assay
To investigate binding properties of p-opioid receptor ligands to human p-opioid receptor, transfected CHO-K1 cell membranes and [^3H]-DAMGO (Perkin Elmer, ES-542-C), as the radioligand, were used. The assay was carried out with 20 μg of membrane suspension, 1 nM of [^3H]-DAMGO in either absence or presence of either buffer or 10 μM Naloxone for total and non-specific binding, respectively. Binding buffer contained Tris-HCl 50 mM, MgCl2 5 mM at pH 7.4. Plates were incubated at 27° C. for 60 minutes. After the incubation period, the reaction mix was then transferred to MultiScreen HTS, FC plates (Millipore), filtered and plates were washed 3 times with ice-cold 10 mM Tris-HCL (pH 7.4). Filters were dried and counted at approximately 40% efficiency in a MicroBeta scintillation counter (Perkin-Elmer) using
EcoScint liquid scintillation cocktail.
The following scale as been adopted for representing the binding to the σ1 receptor and the μ-opiod receptor expressed as Ki: • + Both Ki-μ and Ki-σ1>=500 nM • ++ One K, <500 nM while the other K, is >=500 nM • +++ Both Ki-μ and Ki-σ1<500 nM • ++++ Both Ki-μ and Ki-σ1<100 nM

| Compound | μ and σ1 dual binding | Ki [nM] |
| --- | --- | --- |
| CC(C)S(=O)(=O)Nc1cccc(N2CC3CN(Cc4cn(-c5ccccc5F)nn4)CC3C2)n1 (stereo not shown) [Example 61, N-(6-(5-((1-(2-fluorophenyl)-1H-1,2,3-triazol-4-yl)methyl)hexahydropyrrolo[3,4-c]pyrrol-2(1H)-yl)pyridin-2-yl)propane-2-sulfonamide] | ++ | – |
| CC(C)S(=O)(=O)Nc1cccc(N2CCN(Cc3cn(-c4ccccn4)cn3)CC2)n1 [Example 62, N-(6-(4-((1-(pyridin-2-yl)-1H-imidazol-4-yl)methyl)piperazin-1-yl)pyridin-2-yl)propane-2-sulfonamide] | – | < 500 |
| Nc1cccc(N2CCN(Cc3cn(-c4ccccc4)nn3)CC2)n1 [Example 63, 6-(4-((1-phenyl-1H-1,2,3-triazol-4-yl)methyl)piperazin-1-yl)pyridin-2-amine] | – | ≥ 500 |
| O=S(=O)(Nc1cccc(N2CCN(Cc3cn(-c4ncccc4F)nn3)CC2)n1)C1CC1 [Example 64, N-(6-(4-((1-(3-fluoropyridin-2-yl)-1H-1,2,3-triazol-4-yl)methyl)piperazin-1-yl)pyridin-2-yl)cyclopropanesulfonamide] | ++ | – |
| O=S(=O)(Nc1cccc(N2CCN(Cc3cn(-c4cc(F)ccc4F)nn3)CC2)n1)C1CC1 [Example 65, N-(6-(4-((1-(2,5-difluorophenyl)-1H-1,2,3-triazol-4-yl)methyl)piperazin-1-yl)pyridin-2-yl)cyclopropanesulfonamide] | ++ | – |
| Cc1ccc(F)c(-n2cc(CN3CCN(c4cccc(NS(=O)(=O)C5CC5)n4)CC3)nn2)c1 [Example 66, N-(6-(4-((1-(2-fluoro-5-methylphenyl)-1H-1,2,3-triazol-4-yl)methyl)piperazin-1-yl)pyridin-2-yl)cyclopropanesulfonamide] | ++ | – |
| O=S(=O)(Nc1cccc(N2CCN(Cc3cn(-c4ccc(C(F)(F)F)cn4)nn3)CC2)n1)C1CC1 [Example 67, N-(6-(4-((1-(5-(trifluoromethyl)pyridin-2-yl)-1H-1,2,3-triazol-4-yl)methyl)piperazin-1-yl)pyridin-2-yl)cyclopropanesulfonamide] | ++ | – |
| O=S(=O)(Nc1cccc(N2CCN(Cc3cn(-c4ccc(C(F)(F)F)cc4)nn3)CC2)n1)C1CC1 [Example 68, N-(6-(4-((1-(4-(trifluoromethyl)phenyl)-1H-1,2,3-triazol-4-yl)methyl)piperazin-1-yl)pyridin-2-yl)cyclopropanesulfonamide] | ++ | – |
| O=S(=O)(Nc1cccc(N2CCN(Cc3cn(-c4ccc(C(F)(F)F)cc4F)nn3)CC2)n1)C1CC1 [Example 69, N-(6-(4-((1-(2-fluoro-4-(trifluoromethyl)phenyl)-1H-1,2,3-triazol-4-yl)methyl)piperazin-1-yl)pyridin-2-yl)cyclopropanesulfonamide] | ++ | – |
| O=S(=O)(Nc1cccc(N2CCN(Cc3cn(-c4ccccc4)cn3)CC2)n1)C1CC1 [Example 70, N-(6-(4-((1-phenyl-1H-imidazol-4-yl)methyl)piperazin-1-yl)pyridin-2-yl)cyclopropanesulfonamide] | – | < 500 |
| O=S(=O)(Nc1cccc(N2CCN(Cc3cn(-c4ccccc4F)cn3)CC2)n1)C1CC1 [Example 71, N-(6-(4-((1-(2-fluorophenyl)-1H-imidazol-4-yl)methyl)piperazin-1-yl)pyridin-2-yl)cyclopropanesulfonamide] | – | < 500 |
| Nc1cccc(N2CCN(Cc3cn(-c4ccccc4F)nn3)CC2)n1 [Example 72, 6-(4-((1-(2-fluorophenyl)-1H-1,2,3-triazol-4-yl)methyl)piperazin-1-yl)pyridin-2-amine] | ++ | – |
| O=S(=O)(Nc1cccc(N2CCN(Cc3cn(-c4ccccn4)cn3)CC2)n1)C1CC1 [Example 73, N-(6-(4-((1-(pyridin-2-yl)-1H-imidazol-4-yl)methyl)piperazin-1-yl)pyridin-2-yl)cyclopropanesulfonamide] | – | < 500 |
